“Also recorded” adds a separate entry of the source. Where two headings read alike, the source gives them in different places.
Key:
[1] = biological target: T1, α2AAR-cam (Mus musculus, UniProt Q01338); experiment: FRET in neuronal PC-12 cells stably expressing α2AAR-cam, agonist versus inverse agonists; format: cell-based; settings: 100 μM
T1 construct: expressed in transfected cells; GIRK1 and GIRK4 co-transfected in A8)
Description: As documented in the appended examples, an illustrative recombinant α2A-adrenergic receptor (α2AAR-cam) was employed, whereby said α2A-adrenergic receptor (α2AAR-cam) comprises the two detectable labels YFP and CFP on the first intracellular loop and the third intracellular loop.
The α2AAR-cam receptors were stably expressed in the neuronal cell line PC-12. […] The signals were recorded before and after exposure to agonist (NA: noradrenaline, 100 μM) and two different inverse agonists (Yoh: yohimbine and Rau:rauwolscine, 100 μM).

[2] = system: A2A-CFP14/10-YFPC33; experiment: Intramolecular FRET (nFRET) in HEK293 cells transfected with A2A-CFP14/10-YFPC33; format: cell-based, human
Description: 12 h post transfection cells were replated on glass coverslips coated with poly-L-lysine and cultured for another 12-36 h.
Cells were continuously superfused with control solution (in mM: 140 NaCl; 5.4 KCl; 2 CaCl2; 1 mM MgCl2; 10 mM Glucose and 10 HEPES/NaOH pH 7.3) using a fast solenoid valve operated superfusion system ALA-VM8 (ALA Scientific Instruments).

[3] = biological target: T1, α2AAR-cam; format: cell-based
[4] = biological target: T2, α2AAR (Mus musculus, UniProt Q01338); experiment: Competition ligand binding, wild-type α2AAR stably expressed in HEK293 cells; settings: read-out: noradrenaline affinity Ki
T2 construct: expressed in transfected cells
T2 sequence (Q01338 with tags, fused parts or gaps): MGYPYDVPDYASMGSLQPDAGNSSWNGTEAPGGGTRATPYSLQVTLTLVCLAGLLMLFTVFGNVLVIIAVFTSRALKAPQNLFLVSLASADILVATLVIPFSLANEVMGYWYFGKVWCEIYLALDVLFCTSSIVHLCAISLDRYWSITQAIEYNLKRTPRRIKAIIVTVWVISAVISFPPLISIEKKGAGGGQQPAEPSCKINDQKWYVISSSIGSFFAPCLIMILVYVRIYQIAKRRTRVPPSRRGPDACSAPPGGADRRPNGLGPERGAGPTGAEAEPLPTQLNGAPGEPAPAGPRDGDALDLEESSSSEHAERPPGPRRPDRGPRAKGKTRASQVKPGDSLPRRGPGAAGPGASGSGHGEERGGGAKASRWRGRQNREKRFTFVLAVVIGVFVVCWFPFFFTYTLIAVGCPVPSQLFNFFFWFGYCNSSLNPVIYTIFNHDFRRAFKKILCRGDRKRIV
Description: (§1) Pharmacology. Ligand binding, receptor number determination, cAMP assays, measurement of α2A-adrenergic receptor-activated GIRK currents and reconstitution of receptor-Go coupling were measured as previously described (Vilardaga, (2001) loc. cit.; Bünemann, J. Bio. Chem. 276 (2001), 47512-47517; Vilardaga, J. Biol. Chem. 277 (2002), 8121-8129; Richardson, J. Biol. Chem. 274 (1999), 13525-13533). Saturation and competition binding studies were analysed with the program Prism to calculate KD- and Ki-values.

[5] = biological target: T1, α2AAR-cam; experiment: Competition ligand binding, α2AAR-cam stably expressed in HEK293 cells; settings: read-out: noradrenaline affinity Ki
Description: as §1

[6] = system: PTHR-CFP3-loop and PTHR-YFPC-term; settings: absence or presence of PTH 1 μM
[7] = biological target: T1, α2AAR-cam; experiment: α2A-adrenergic receptor-activated whole cell GIRK currents in HEK293 cells; format: cell-based
Description: as §1
Electrophysiology. Whole cell GIRK currents were measured in HEK293 cells stably expressing 6 pmol/mg membrane protein α2AR-cam 20-28 h after transient transfection with GIRK1 and GIRK4 as described previously (Bünemann, (2001), loc. cit.). Membrane currents were recorded using an EPC 9 amplifier and Pulse software (HEKA Instruments) for voltage control, data acquisition and data evaluation. Experimental conditions such as patch pipettes, internal and external solutions, voltage-clamp protocol as well as the superfusion system were the same as described previously (Bünemann, (2001), loc. cit.).

[8] = biological target: T3, PTHR-cam (Homo sapiens, UniProt Q03431, INS395[…]); experiment: FRET (ratio F*535/F*480) in single HEK293 cells expressing PTHR-cam; format: cell-based; settings: intact HEK293 cells; PTH 1 μM, PTH(7-34) 3 μM
T3 construct: expressed in transfected cells

[9] = system: A2A receptors; experiment: 3H-NECA radioligand binding, adenosine receptor constructs in transiently transfected COS cells; design: species or system human
Description: FIG. 12: Pharmacological properties of the Adenosine receptor constructs. A-B) Comparison between the binding (A) and signalling properties (B) of several adenosine receptor constructs with their respective wild-type receptor in transiently transfected COS cells. Adenylylcyclases activity was determined in membranes from transiently transfected COS cells as previously published (Jakobs et al., J cyclic Nucleotide Res 2 (1976) 381-392, Klotz et al., Naunyn-Schmiedeberg's Arch Pharmacol 357 (1998) 1-9). […] Data are the mean±sd of at least 3 separate experiments.

[10] = biological target: T1, α2AAR-cam; experiment: [3H]UK14304 binding to membranes containing α2AAR-cam with exogenous Go protein; settings: for Kd: read-out: Kd of agonist binding
Description: Pharmacology. […] Saturation and competition binding studies were analysed with the program Prism to calculate KD- and Ki-values.
Third, binding of G-proteins to receptors is known to enhance formation of the active, agonist-bound state.

[11] = biological target: T1, α2AAR-cam; experiment: FRET in membranes containing α2AAR-cam in the presence of Go proteins; format: biochemical
Description: Membrane preparation. Membrane fractions were obtained after two centrifugations at 4° C., first at 800×g for 10 min and the second at 100,000×g for 30 min. Membranes were treated with 6 M urea in 20 mM Hepes, pH 7.4, for 30 min on ice followed by centrifugation at 100,000×g for 15 min. After two washing steps at 4° C. in buffer B the membranes were resuspended in a buffer A (without BSA) and immediately used in the experiments. 20 μl aliquots of membranes were subjected to fluorescence microscopy similar to intact cells using a 20× objective.

## COC(=O)[C@@H]1[C@H]2C[C@H]3c4[nH]c5ccccc5c4CCN3C[C@@H]2CC[C@@H]1O [yohimbine]
[1]
  conformational change of the receptor relative to agonist noradrenaline: opposite conformational changes

## Nc1ncnc2c1ncn2[C@@H]1O[C@H](CO)[C@@H](O)[C@H]1O [adenosine]
[2]
  time for nFRET to return to initial value after withdrawal of agonist: 5 to 10 s

## pertussis toxin
[3]
  effect of inactivating Gi and Go on noradrenaline-induced FRET signal: did not affect

## NC[C@H](O)c1ccc(O)c(O)c1 [noradrenaline]
[4]
  Ki: 5000 ± 800 nM
[5]
  Ki: 16700 ± 1400 nM
[3]
  change of FRET signal, given alone: decline of the FRET signal; also recorded: rapid decrease of the FRET signal
  maximal apparent rate constant kobs: ~26 s⁻¹
  time constant required for receptor activation: less than 40 ms
  times faster than activation of chemically labelled purified β2-adrenergic receptors: more than 5000 times

## PTH: parathyroid hormone, agonist of the PTH receptor
[6]
  intermolecular FRET: no FRET

## α2AAR-cam: mouse α2A-adrenergic receptor with YFP in third intracellular loop and CFP on C-terminus, SEQ ID NOS: 11 and 12
[7]
  speed of GIRK current activation versus wild type α2AAR: not faster than the wild type

## PTH7-34: truncated variant of PTH, a low affinity antagonist (LMHNLGKHLNSMERVEWLRKKLQDVHNF; Parathyroid hormone; UniProt P01270 38-65, looked up, fragment)
[8]
  change in FRET signal: failed to induce a change in FRET

## Clc1cccc(Cl)c1N=C1NCCN1 [clonidine]
[3]
  FRET signal compared to the full agonist noradrenaline: three-fold smaller
  effect of simultaneous addition on noradrenaline response: restored this response back to the partial response

## Cc1ccc(N(CC2=NCCN2)c2cccc(O)c2)cc1 [phentolamine]
[3]
  change of FRET signal, given alone: did not alter the FRET signal
  effect on the noradrenaline-induced FRET signal: rapidly reverted the noradrenaline-induced signal

## CCNC(=O)[C@H]1O[C@@H](n2cnc3c(N)ncnc32)[C@H](O)[C@@H]1O [^3H-NECA]
[9]
  radioligand binding compared with wild-type A2A receptor: no significant difference

## Nc1nc2c(ncn2[C@@H]2O[C@H](COP(=O)(O)OP(=O)(O)OP(O)(O)=S)[C@@H](O)[C@H]2O)c(=O)[nH]1 [GTPγS]
[10]; GTPγS 10 μM, Go present
  reduction of the binding of 5 nM [3H]UK14304: more than 50%
[11]; GTPγS
  effect on FRET signal of saturating concentrations of UK14304: did not affect
[11]; GTPγS 10 μM, Go present
  reduction of FRET signals caused by 5 nM UK14304: more than 50%

## COC(=O)[C@H]1[C@H]2C[C@H]3c4[nH]c5ccccc5c4CCN3C[C@H]2CC[C@@H]1O [rauwolscine]
[1]
  conformational change of the receptor relative to agonist noradrenaline: opposite conformational changes

## Brc1c(NC2=NCCN2)ccc2nccnc12 [UK14304]
[10]; 10 μM GTPγS
  decrease of binding affinity in presence of GTPγS: ≈ 3 fold
[10]; exogenous Go (receptor:Go 1:100), without GTPγS
  Kd: 3.4 ± 0.8 nM
[10]; exogenous Go, in presence of 10 μM GTPγS
  Kd: 9.6 ± 1.1 nM
